Test results taken from ChEMBL document CHEMBL4177538, “Recent progress in prodrug design strategies based on generally applicable modifications” (Bioorg Med Chem Lett, 2017).

Experiments:
[1] = Half life in phosphate buffered saline at pH 7.4 at 37 degC; type: physicochemical
glucuronidase = test: Half life in phosphate buffered saline at pH 7 in presence of glucuronidase at 37 degC; type: ADME

Row | half-life [1] [min] | SMILES | half-life (glucuronidase) [min]
1 | 12 | Cc1cccc(C)c1OCC(=O)N[C@@H](Cc1ccccc1)[C@H](OC(=O)CCC(=O)NCCN1CCCCC1)C(=O)N1CSC(C)(C)[C@H]1C(=O)NC(C)(C)C | –
2 | – | CC[C@@]1(O)C(=O)OCc2c1cc1n(c2=O)Cc2cc3cc(OCc4ccc(O[C@@H]5O[C@H](C(=O)O)[C@@H](O)[C@H](O)[C@H]5O)c([N+](=O)[O-])c4)ccc3nc2-1 | 20
